Test system: Fischer male rats with Meynert's basal nuclei damage
Test: Passive avoidance learning test (mneme test) in rats with ibotenic acid injury of Meynert's basal nuclei
Format: in vivo, rat
Conditions: 0.1 mg/kg
Procedure: A solution prepared by dissolving ibotenic acid in physiological saline to have a concentration of 8 μg/μl was injected into the Meynert's basal nuclei of Fischer male rats (n=12 to 13, 11-weeks old when used in the experiment). One μl of the solution was injected thereinto over a period of 6 minutes, and then the rats were left as they were for 5 minutes to thereby make them have bilateral injury. Three weeks after the treatment, they were used in the experiment. Before the experiment, they were handled for 3 days. In the mneme test, the rats were first put into the light room of a passive avoidance learning test device, and the latent time taken before they entered the dark room was measured (acclimation trial). […] Then, the rats were made to receive electric shock (0.4 mA, 4 seconds) via the grid of the floor of the dark room (acquirement trial) 24 hours after the acquirement trial, the rats were again transferred into the light room, and the reaction latent time taken before the rats entered the dark room was measured up to at most 300 seconds (retention trial). […] The dose of each of the two substances was determined on the basis of the test results previously made for the efficacy of the single administration of each substance to the same models. […]

Structure (SMILES)	effect on reaction latent time in single administration (in words)
COc1cc2c(cc1OC)C(=O)C(CC1CCN(Cc3ccccc3)CC1)C2.Cl (centres unmarked) [E2020, Donepedil Hydrochloride]	ineffective
CC(=O)N1CCN(NC(=O)c2ccc(F)cc2)CC1 [FK960, N-(4-acetyl-1-piperazinyl)-p-fluorobenzamide Monohydrate]	ineffective

— patent US20060074091A1, “Nootropic effect enhancer” (priority 2000, published 2006)
